Assay results taken from patent publication US20180071317A1, “USE OF AGENTS THAT ALTER THE PERITUMORAL ENVIRONMENT FOR THE TREATMENT OF CANCER” (SERVICIO ANDALUZ DE SALUD, priority 2011, published 2018).

Experiments:
[1] = tested on: co-cultures of tumor cells-immune/inflammatory cells (leukocytes); experiment: Inhibition/survival in co-cultures of primary human tumor cells and leukocytes; assay type: cell-based; details: SP + antagonist
Description: To check that the interaction between the human primary tumor cells with human immune/inflammatory (polymorphonuclear and mononuclear leukocytes) cells, promotes the survival of both types of cells, cultures were carried out with sets of immune/inflammatory cells (mono and polymorphonuclear leukocytes) with tumor cells obtained directly from human primary tumors of patients.
The leukocytes were obtained from centrifugation of blood from the same patient. The leukocytes were cultured in fresh plasma from the same patient, in order to build a model similar to human physiology.

[2] = tested on: macrophages in co-culture with cells isolated from primary human tumors; experiment: Marker expression (IHC) in macrophages co-cultured with primary human tumor cells (colon, breast, ovarian, lung carcinoma, melanoma); assay type: cell-based; details: SP + antagonist;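 further: macrophages came from pleural or peritoneal washings of the patient who also supplied the tumor cells, and both were co-cultured on fresh blood plasma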
Description: To check that the interaction of tumor cells obtained directly from primary human immune cell/inflammatory (macrophages) cells, obtained from the patient stimulate secretion of substances by these macrophages recognized as important in survival of both cell types and in the progression of tumor cells, co-cultures were performed on fresh blood plasma, immune cell/inflammatory (macrophages) with tumor cells derived from primary tumors. All obtained from the same patient, to build an experimental model similar to human physiology.
Macrophages were obtained from washing or pleural or peritoneal from the same patient from which the primary tumor cells were obtained in each case.

SMILES | survival/proliferation in co-cultures of tumor cells-leukocytes (in words) [1] | expression of markers in macrophages co-cultured with primary tumor cells (in words) [2]
COc1ccccc1CN[C@H]1C2CCN(CC2)[C@H]1C(c1ccccc1)c1ccccc1 [CP-96345] | same results | same results
COc1ccccc1CN[C@H]1CCCN[C@H]1c1ccccc1 [CP-100263] | same results | same results
C#C[C@]1(O)CC[C@H]2[C@@H]3CCC4=Cc5nc6nc7ccccc7n6cc5C[C@]4(C)[C@H]3CC[C@@]21C [WIN 62,577] | same results | same results
Ic1ccccc1CNC1C2CCN(CC2)C1C(c1ccccc1)c1ccccc1.O=C(O)C(=O)O [L-703,606, cis-2-(Diphenylmethyl)-N-[(2-iodophenyl)methyl]-1-azabicyclo [2.2.2]octan-3-amine oxalate salt] | same results | same results
Cl.FC(F)(F)c1cc(CO[C@H]2CCCN[C@H]2c2ccccc2)cc(C(F)(F)F)c1 [L-733,060, (2S,3S)-3-[(3,5-bis (Trifluoromethyl)phenyl)methoxy]-2-phenylpiperidine hydrochloride] | same results | same results
CC(=O)N[C@@H](Cc1c[nH]c2ccccc12)C(=O)OCc1cc(C(F)(F)F)cc(C(F)(F)F)c1 [L-732,138, N-Acetyl-L-tryptophan 3,5-bis (trifluoromethyl)benzyl ester] | same results | same results
C#C[C@]1(O)CC[C@H]2[C@@H]3CC[C@H]4Cc5nc6nc7ccccc7n6cc5C[C@]4(C)[C@H]3CC[C@@]21C [WIN 51708] | same results | same results
C[C@@H](O[C@H]1OCCN(Cc2n[nH]nc2CN(C)C)[C@H]1c1ccc(F)cc1)c1cc(C(F)(F)F)cc(C(F)(F)F)c1.Cl [L-760735] | same results | same results
